The target in one data set is T1, Lyn (Homo sapiens, UniProt P07948).
T1 construct: purchased Reaction Biology Corp. (Kinase HotSpot service)
As to the kind of experiment: protein kinase profile for 50 selected protein Kinase (FIG. 5), Lyn. It is filed as biochemical. The settings on record: single-dose concentration 1.0 μM.

The target in a further data set is T2, CRaf (Homo sapiens, UniProt P04049).
T2 construct: purchased Reaction Biology Corp. (Kinase HotSpot service)
As to the kind of experiment: protein kinase profile for 50 selected protein Kinase (FIG. 5), CRaf. The class given is biochemical. The settings on record: single-dose concentration 1.0 μM.

The nature of the next data set: metabolic stability (MS). The class given is in vitro ADME.
In a further data set the target is T3, CSF-1R (Homo sapiens, UniProt P07333).
T3 construct: purchased Reaction Biology Corp. (Kinase HotSpot service)
T3 sequence (P07333 20-972): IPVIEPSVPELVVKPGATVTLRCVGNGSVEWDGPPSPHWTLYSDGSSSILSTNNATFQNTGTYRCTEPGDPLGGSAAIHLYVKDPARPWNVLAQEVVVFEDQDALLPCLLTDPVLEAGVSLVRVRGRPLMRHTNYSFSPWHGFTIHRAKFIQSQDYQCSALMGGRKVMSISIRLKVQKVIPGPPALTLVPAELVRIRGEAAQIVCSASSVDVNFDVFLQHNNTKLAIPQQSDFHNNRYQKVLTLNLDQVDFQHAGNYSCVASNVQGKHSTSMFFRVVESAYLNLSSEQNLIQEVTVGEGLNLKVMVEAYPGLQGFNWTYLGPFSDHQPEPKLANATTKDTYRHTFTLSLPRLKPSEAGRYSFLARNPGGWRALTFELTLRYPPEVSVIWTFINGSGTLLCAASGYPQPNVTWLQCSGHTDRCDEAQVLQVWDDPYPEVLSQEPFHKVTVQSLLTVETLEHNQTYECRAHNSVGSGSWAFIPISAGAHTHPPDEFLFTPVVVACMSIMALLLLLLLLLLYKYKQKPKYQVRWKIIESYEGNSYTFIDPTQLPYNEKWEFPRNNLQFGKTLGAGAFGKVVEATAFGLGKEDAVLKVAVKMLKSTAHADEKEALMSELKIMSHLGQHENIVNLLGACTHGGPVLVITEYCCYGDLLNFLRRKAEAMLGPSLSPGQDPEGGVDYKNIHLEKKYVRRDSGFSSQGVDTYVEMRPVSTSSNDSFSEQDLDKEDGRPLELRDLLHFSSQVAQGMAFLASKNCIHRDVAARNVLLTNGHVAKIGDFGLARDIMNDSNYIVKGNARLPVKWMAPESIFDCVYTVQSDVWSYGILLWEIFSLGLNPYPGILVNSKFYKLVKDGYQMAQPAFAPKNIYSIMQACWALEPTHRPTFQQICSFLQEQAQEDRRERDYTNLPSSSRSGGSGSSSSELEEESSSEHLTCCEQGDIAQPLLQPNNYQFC
The data set is described as follows: protein kinase profile for 50 selected protein Kinase (FIG. 5), CSF-1R. The class given is biochemical. The settings on record: single-dose concentration 1.0 μM.

Another data set addresses T4, FMS (h) (Homo sapiens, UniProt P07333).
T4 construct: purchased Reaction Biology Corp. (Kinase HotSpot service)
As to the kind of experiment: Kinase HotSpot radiometric assay, activity on CSF-1R (FMS). The class given is biochemical.

In a further data set the target is T5, BRafV600E (Homo sapiens, UniProt P15056, V600E).
T5 construct: purchased Reaction Biology Corp. (Kinase HotSpot service)
T5 sequence (P15056 416-766 V600E limits assumed): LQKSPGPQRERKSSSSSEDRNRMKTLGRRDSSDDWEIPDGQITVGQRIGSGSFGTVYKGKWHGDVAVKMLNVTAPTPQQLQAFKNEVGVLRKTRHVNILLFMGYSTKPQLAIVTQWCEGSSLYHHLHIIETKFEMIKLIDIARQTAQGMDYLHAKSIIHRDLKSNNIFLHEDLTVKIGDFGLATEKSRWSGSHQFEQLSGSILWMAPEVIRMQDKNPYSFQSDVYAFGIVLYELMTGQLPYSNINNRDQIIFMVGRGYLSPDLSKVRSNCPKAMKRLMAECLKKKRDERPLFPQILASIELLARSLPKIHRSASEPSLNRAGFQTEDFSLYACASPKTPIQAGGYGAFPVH
As to the kind of experiment: protein kinase profile for 50 selected protein Kinase (FIG. 5), BRafV600E. It is filed as biochemical. The settings on record: single-dose concentration 1.0 μM.

Another data set in a line: PAMPA assay. The class given is in vitro ADME. The settings on record: read-out: PAMPA assay Pe Avg. (In general: In PAMPA a lipid-coated filter parts donor from acceptor wells.)
Another data set can be described thus: plasma stability (PS). It is filed as in vitro ADME.
The test system of another data set is EMS and FLT3. As to the kind of experiment: Protein Kinase Profiling analysis, selectivity (FIG. 4). It is filed as biochemical.
[1] abbreviates: Table 3, read-out: IC50 (M) on FMS.

Results on 22 compounds are retold here after patent US20240308994A1, “ISOXAZOLE DERIVATIVE OR PHARMACEUTICALLY ACCEPTABLE SALT THEREOF AND USE THEREOF” (INDUSTRY-UNIVERSITY COOPERATION FOUNDATION HANYANG …, priority 2021, published 2024).

Each structure is given as a SMILES string. Read-outs that look alike come from different tables or passages of the source.

As a reminder, the IC50 is the concentration needed to halve the response being measured.

T4 sequence (P07333 20-972): as the sequence (P07333 20-972) above
T1 sequence (P07948 whole entry): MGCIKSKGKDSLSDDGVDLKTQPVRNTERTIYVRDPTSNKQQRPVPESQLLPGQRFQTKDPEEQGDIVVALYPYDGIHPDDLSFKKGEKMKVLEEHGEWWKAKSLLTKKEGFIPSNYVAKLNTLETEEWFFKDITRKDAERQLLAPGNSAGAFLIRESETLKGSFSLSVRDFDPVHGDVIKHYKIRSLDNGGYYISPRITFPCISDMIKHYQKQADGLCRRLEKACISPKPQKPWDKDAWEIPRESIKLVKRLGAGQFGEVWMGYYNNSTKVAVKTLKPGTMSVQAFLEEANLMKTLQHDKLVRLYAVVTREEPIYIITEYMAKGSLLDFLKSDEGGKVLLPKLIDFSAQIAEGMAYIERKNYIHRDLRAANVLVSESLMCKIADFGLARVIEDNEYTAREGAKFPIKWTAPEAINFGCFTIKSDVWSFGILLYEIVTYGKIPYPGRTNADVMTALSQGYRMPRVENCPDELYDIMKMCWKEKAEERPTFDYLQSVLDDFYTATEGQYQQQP
T2 sequence (P04049 whole entry): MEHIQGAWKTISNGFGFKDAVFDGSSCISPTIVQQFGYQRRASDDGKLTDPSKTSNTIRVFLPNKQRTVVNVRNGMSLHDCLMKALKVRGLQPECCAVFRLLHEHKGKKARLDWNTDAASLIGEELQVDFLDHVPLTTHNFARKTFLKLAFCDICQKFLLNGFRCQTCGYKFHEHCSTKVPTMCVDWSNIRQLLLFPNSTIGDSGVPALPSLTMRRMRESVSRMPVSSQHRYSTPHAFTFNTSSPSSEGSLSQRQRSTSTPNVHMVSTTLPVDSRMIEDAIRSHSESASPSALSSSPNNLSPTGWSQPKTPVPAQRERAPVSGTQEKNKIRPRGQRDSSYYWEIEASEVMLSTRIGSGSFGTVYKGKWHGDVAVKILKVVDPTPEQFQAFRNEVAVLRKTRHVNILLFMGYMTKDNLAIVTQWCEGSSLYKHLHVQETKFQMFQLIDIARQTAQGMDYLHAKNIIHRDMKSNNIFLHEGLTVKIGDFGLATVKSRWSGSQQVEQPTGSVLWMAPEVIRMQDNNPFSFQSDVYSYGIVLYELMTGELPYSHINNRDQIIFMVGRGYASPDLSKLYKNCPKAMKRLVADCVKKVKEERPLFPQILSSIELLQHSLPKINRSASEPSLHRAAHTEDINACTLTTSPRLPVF

`Cc1ccc(NC(=O)c2cc(N3CCN(C)CC3)cc(C(F)(F)F)c2)cc1NC(=O)c1cnoc1C` [Comparative example 1, reference compound]: the “inhibitory activity against Lyn” value on Lyn is “inhibitory activity”. The “inhibitory activity against CRaf” value at CRaf is listed as “inhibitory activity”. Further, the “MS (human) %@60 min” value in “metabolic stability (MS)” was below 10%. Also, the “inhibitory activity against CSF-1R” value at CSF-1R is “inhibitory activity”. For the same compound, the IC50 on FMS (h) (Table 5, read-out: IC50 on CSF-1R) worked out at 1.03e-08 M. Also, the “inhibitory activity against BRafV600E” value against BRafV600E was “inhibitory activity”.
In the case of `Cc1cc(C(=O)Nc2cc(NC(=O)c3cc(N4CCN(C)CC4)cc(C(F)(F)F)c3)ccc2C)no1` [Compound 5a, 5-methyl-N-(2-methyl-5-(3-(4-methylpiperazin-1-yl)-5-(trifluoromethyl)benzamido)phenyl)isoxazole-3-carboxamide], the Papp in the data set “PAMPA assay” amounted to 55.5 ×10⁻⁶ cm/s. The PS (human) @30 min in the data set “plasma stability (PS)” (30 min) is above 100%. In addition, the PS (human) @60 min in the data set “plasma stability (PS)” (60 min) is above 100%.
Turning to `CCN1CCC(c2ccc(NC(=O)c3cc(C)on3)c(C3=CCCCC3)c2)CC1` [Compound 70b, N-(5-(1-ethylpiperidin-4-yl)-2′,3′,4′,5′-tetrahydro-[1,1′-biphenyl]-2-yl)-5-methylisoxazole-3-carboxamide], the IC50 on FMS (h) (setting [1]) is below 1e-07 M.
As to `CCN1CCC(c2ccc(NC(=O)c3cc(C)on3)c(C3=CCCC3)c2)CC1` [Compound 71b, N-(2-(Cyclopent-1-en-1-yl)-4-(1-ethylpiperidin-4-yl)phenyl)-5-methylisoxazole-3-carboxamide], the IC50 is above 1e-06 M on FMS (h) (Table 1, read-out: IC50) and above 1e-06 M at FMS (h) (setting [1]).
Regarding `CCN1CCC(c2ccc(NC(=O)c3cc(C)on3)c(C3=CCC(C)CC3)c2)CC1` (stereo not drawn) [Compound 72b, N-(5-(1-Ethylpiperidin-4-yl)-4′-methyl-2′,3′,4′,5′-tetrahydro-[1,1′-biphenyl]-2-yl)-5-methylisoxazole-3-carboxamide], the IC50 at FMS (h) (Table 1, read-out: IC50) is below 1e-07 M; at FMS (h) (setting [1]), below 1e-07 M.
With `CCN1CCC(c2ccc(NC(=O)c3cc(C)on3)c(C3=CCC(C)(C)CC3)c2)CC1` [Compound 73b, N-(5-(1-ethylpiperidin-4-yl)-4′,4′-dimethyl-2′,3′,4′,5′-tetrahydro-[1,1′-biphenyl]-2-yl)-5-methylisoxazole-3-carboxamide], the IC50 is below 1e-07 M on FMS (h) (Table 1, read-out: IC50) and below 1e-07 M on FMS (h) (setting [1]).
For `CCN1CCC(c2ccc(NC(=O)c3cc(C)on3)c(C3CCCCC3)c2)CC1` [Compound 74b, N-(2-cyclohexyl-4-(1-ethylpiperidin-4-yl)phenyl)-5-methylisoxazole-3-carboxamide], the IC50 is above 1e-06 M on FMS (h) (Table 1, read-out: IC50) and above 1e-06 M at FMS (h) (setting [1]).
As for `CCN1CCC(c2ccc(NC(=O)c3cc(C)on3)c(C3CCCC3)c2)CC1` [Compound 75b, N-(2-Cyclopentyl-4-(1-ethylpiperidin-4-yl)phenyl)-5-methylisoxazole-3-carboxamide], the IC50 was above 1e-06 M on FMS (h) (Table 1, read-out: IC50) and above 1e-06 M on FMS (h) (setting [1]).
As to `CC(C)=CCN1CCC(c2ccc(NC(=O)c3cc(C)on3)c(C3=CCCCC3)c2)CC1` [Compound 76b, 5-methyl-N-(5-(1-(3-methylbut-2-en-1-yl)piperidin-4-yl)-2′,3′,4′,5′-tetrahydro-[1,1′-biphenyl]-2-yl)isoxazole-3-carboxamide], the IC50 is 1e-07 to 1e-06 M at FMS (h) (Table 1, read-out: IC50) and below 1e-07 M on FMS (h) (setting [1]).
The matching figures for `Cc1cc(C(=O)Nc2ccc(C3CCN(CC4CC4)CC3)cc2C2=CCC(C)CC2)no1` (stereo not drawn) [Compound 77b, N-(5-(1-(cyclopropylmethyl)piperidin-4-yl)-4′-methyl-2,3,4,5′-tetrahydro-[1,1′-biphenyl]-2-yl)-5-methylisoxazole-3-carboxamide]: below 1e-07 M and below 1e-07 M.
The matching figures for `Cc1cc(C(=O)Nc2ccc(C3CCN(CC4CC4)CC3)cc2C2=CCC(C)(C)CC2)no1` [Compound 78b, N-(5-(1-(cyclopropylmethyl)piperidin-4-yl)-4′,4′-dimethyl-2′,3′,4′,5′-tetrahydro-[1,1′-biphenyl]-2-yl)-5-methylisoxazole-3-carboxamide]: below 1e-07 M and below 1e-07 M.
`Cc1cc(C(=O)Nc2ccc(C3CC[N+](C)(C)CC3)cc2C2=CCCCC2)no1` [Compound 79b, 1,1-dimethyl-4-(6-(5-methylisoxazole-3-carboxamido)-2′,3′,4′,5′-tetrahydro-[1,1′-biphenyl]-3-yl)piperidin-1-ium]: the IC50 on FMS (h) (setting [1]) is below 1e-07 M.
For the compound `Cc1cc(C(=O)Nc2ccc(C3CCC[N+](C)(C)CC3)cc2C2=CCCCC2)no1` (stereo not drawn) [Compound 79c, 1,1-dimethyl-4-(6-(5-methylisoxazole-3-carboxamido)-2′,3′,4′,5′-tetrahydro-[1,1′-biphenyl]-3-yl)azepan-1-ium], at FMS (h) (setting [1]), the IC50 is below 1e-07 M.
Turning to `Cc1cc(C(=O)Nc2ccc(C3CCC[N+](C)(C)CC3)cc2C2=CCC(C)(C)CC2)no1` (stereo not drawn) [Compound 80c, 4-(4′,4′-dimethyl-6-(5-methylisoxazole-3-carboxamido)-2′,3′,4′,5′-tetrahydro-[1,1′-biphenyl]-3-yl)-1,1-dimethylazepan-1-ium], the IC50 at FMS (h) (setting [1]) is below 1e-07 M.
Regarding `Cc1cc(C(=O)Nc2ccc(C3CC[N+](C)(C)CC3)cc2C2CCCCC2)no1` [Compound 81b, 4-(3-cyclohexyl-4-(5-methylisoxazole-3-carboxamido)phenyl)-1,1-dimethylpiperidin-1-ium], the IC50 at FMS (h) (setting [1]) lay within 1e-07 to 1e-06 M.
Consider `CC[N+]1(CC)CCC(c2ccc(NC(=O)c3cc(C)on3)c(C3=CCCCC3)c2)CC1` [Compound 82b, 1,1-diethyl-4-(6-(5-methylisoxazole-3-carboxamido)-2′,3′,4′,5′-tetrahydro-[1,1′-biphenyl]-3-yl)piperidin-1-ium], for which, on FMS (h) (setting [1]), the IC50 was below 1e-07 M.
Still for that read-out and setting: for `CC(=O)N1CCC(c2ccc(NC(=O)c3cc(C)on3)c(C3=CCCCC3)c2)CC1` [Compound 83b, N-(5-(1-acetylpiperidin-4-yl)-2′,3′,4′,5′-tetrahydro-[1,1′-biphenyl]-2-yl)-5-methylisoxazole-3-carboxamide] the value was 1e-07 to 1e-06 M; for `Cc1cc(C(=O)Nc2ccc(C3CCN(C(=O)CN(C)C)CC3)cc2C2=CCCCC2)no1` [Compound 84b, N-(5-(1-(dimethylglycyl)piperidin-4-yl)-2′,3′,4′,5′-tetrahydro-[1,1′-biphenyl]-2-yl)-5-methylisoxazole-3-carboxamide], 1e-07 to 1e-06 M.
Turning to `Cc1cc(C(=O)Nc2ccc(C3CC(C)(C)NC(C)(C)C3)cc2C2=CCCCC2)no1` [Compound 92a, 5-methyl-N-(5-(2,2,6,6-tetramethylpiperidin-4-yl)-2′,3′,4′,5′-tetrahydro-[1,1′-biphenyl]-2-yl)isoxazole-3-carboxamide], the IC50 on FMS (h) (Table 2, read-out: IC50 (μm)) was 1e-07 to 1e-06 M; on FMS (h) (setting [1]), below 1e-07 M.
As for `Cc1cc(C(=O)Nc2ccc(C3CC(C)(C)NC(C)(C)C3)cc2C2=CCC(C)CC2)no1` (stereo not drawn) [Compound 92b, 5-methyl-N-(4′-methyl-5-(2,2,6,6-tetramethylpiperidin-4-yl)-2′,3′,4,5′-tetrahydro-[1,1′-biphenyl]-2-yl)isoxazole-3-carboxamide], the “kinase selectivity of EMS and FLT3” value in the data set with EMS and FLT3 is recorded as “high selectivity”. For the same compound, the IC50 was below 1e-07 M on FMS (h) (Table 2, read-out: IC50 (μm)) and below 1e-07 M at FMS (h) (setting [1]).
Turning to `Cc1cc(C(=O)Nc2ccc(C3CC(C)(C)NC(C)(C)C3)cc2C2=CCC(C)(C)CC2)no1` [Compound 92c, N-(4′,4′-dimethyl-5-(2,2,6,6-tetramethylpiperidin-4-yl)-2,3′,4′,5′-tetrahydro-[1,1′-biphenyl]-2-yl)-5-methylisoxazole-3-carboxamide], the IC50 was below 1e-07 M at FMS (h) (Table 2, read-out: IC50 (μm)) and below 1e-07 M at FMS (h) (setting [1]).
`Cc1cc(C(=O)Nc2ccc(C3CC(C)(C)NC(C)(C)C3)cc2C2=CCCCCC2)no1` [Compound 92d, N-(2-(cyclohept-1-en-1-yl)-4-(2,2,6,6-tetramethylpiperidin-4-yl)phenyl)-5-methylisoxazole-3-carboxamide]: the IC50 was in the range of 1e-07 to 1e-06 M on FMS (h) (Table 2, read-out: IC50 (μm)) and 1e-07 to 1e-06 M on FMS (h) (setting [1]).
